Measured values taken from paper PMC4114247 (Cancer research, 2009).
“Also recorded” adds a separate entry of the source.

Legend:
[1] = target: PSMA on human prostate cancer LNCaP cells (Homo sapiens, UniProt Q04609); experiment: Saturation binding analysis on LNCaP cells
[2] = target: NAALADase activity of PSMA (Homo sapiens, UniProt Q04609); experiment: NAALADase inhibition in LNCaP cell lysates; assay type: biochemical
PC3 PIP (PSMA +) tumors = details: mouse, in vivo
[3] = test system: mice bearing LNCaP xenografts; experiment: SPECT/CT imaging, LNCaP xenografts; assay type: in vivo, mouse; details: 4 hr after injection
[4] = test system: NCr nude mice bearing LNCaP xenografts; experiment: Mouse tissue distribution, LNCaP xenografts; assay type: in vivo; details: for Ratio Tumor:Blood / Ratio Tumor:Skeletal Muscle: ratio based on the %ID/g
[5] = target: LNCaP cells (PSMA positive) (Homo sapiens, UniProt Q04609); experiment: Direct binding to LNCaP cells
Chain of LNCaP cells (PSMA positive) (Q04609 whole entry): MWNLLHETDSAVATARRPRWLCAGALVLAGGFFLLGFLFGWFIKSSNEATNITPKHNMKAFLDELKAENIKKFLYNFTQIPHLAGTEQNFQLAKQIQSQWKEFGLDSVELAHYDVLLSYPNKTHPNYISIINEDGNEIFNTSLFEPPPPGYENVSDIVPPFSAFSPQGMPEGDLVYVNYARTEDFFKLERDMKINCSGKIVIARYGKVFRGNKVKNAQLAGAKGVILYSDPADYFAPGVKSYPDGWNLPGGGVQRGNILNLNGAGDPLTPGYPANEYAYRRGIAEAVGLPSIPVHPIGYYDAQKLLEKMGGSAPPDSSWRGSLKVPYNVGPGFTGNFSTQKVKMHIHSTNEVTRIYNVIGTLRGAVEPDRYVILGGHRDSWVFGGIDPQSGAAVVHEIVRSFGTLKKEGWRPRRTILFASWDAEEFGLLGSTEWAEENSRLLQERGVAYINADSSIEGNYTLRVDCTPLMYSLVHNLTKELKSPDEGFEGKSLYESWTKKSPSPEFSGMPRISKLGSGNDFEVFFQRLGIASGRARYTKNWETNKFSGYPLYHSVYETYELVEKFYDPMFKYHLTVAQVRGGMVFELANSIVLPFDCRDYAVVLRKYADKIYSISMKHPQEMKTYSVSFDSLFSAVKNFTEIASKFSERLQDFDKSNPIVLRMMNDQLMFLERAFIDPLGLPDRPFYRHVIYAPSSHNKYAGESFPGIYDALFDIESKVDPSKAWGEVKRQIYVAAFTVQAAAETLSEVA

[6] = Stability in liver microsomes; assay type: in vitro ADME; details: data not shown
[7] = test system: NCr-nu/nu mice bearing PC3 xenografts; experiment: Mouse tissue distribution, PC3 xenografts; assay type: in vivo; details: PSMA deficient PC3 xenografts
[8] = Stability in blood plasma; assay type: in vitro ADME; details: data not shown
LNCaP cells = experiment: Internalization into LNCaP cells; assay type: cell-based, human; details: 100 nM, 0–2 hours
[9] = test system: PC3 cells (PSMA negative); experiment: Direct binding to PC3 cells; details: 3 nM radioligand, 1 hour; PC3 cells lack PSMA
[10] = co-injected with 50 mg/kg PMPA, 2 hours

Chain of PSMA on human prostate cancer LNCaP cells (Q04609 whole entry): as above
Chain of NAALADase activity of PSMA (Q04609 whole entry): as above

O=C(O)CC[C@H](NC(=O)N[C@@H](CCCCNCc1ccc(I)cc1)C(=O)O)C(=O)O [MIP-1072, (S)-2-(3-((S)-1-carboxy-5-(4–iodobenzylamino)pentyl)ureido)pentanedioic acid]
Kd [1]: 3.8 ± 1.3 nM
Ki [2]: 4.6 ± 1.6 nM

O=C(O)CC[C@H](NC(=O)N[C@@H](CCCCNC(=O)Nc1ccc(I)cc1)C(=O)O)C(=O)O [MIP-1095, (S)-2-(3-((S)-1-carboxy-5-(3-(4-iodophenyl)ureido)pentyl)ureido)pentanedioic acid]
Kd [1]: 0.81 ± 0.39 nM
Greater affinity of MIP-1095 over MIP-1072 ([1]; saturation binding and NAALADase inhibition studies): approximately 5 fold

O=C(O)CC[C@H](NC(=O)N[C@@H](CCCCNCc1ccc(I)cc1)C(=O)O)C(=O)O [[^123I]MIP-1072, (S)-2-(3-((S)-1-carboxy-5-(4–iodobenzylamino)pentyl)ureido)pentanedioic acid]
SPECT/CT detection of PC3 PIP (PSMA +) tumors (PC3 PIP (PSMA +) tumors): detected
SPECT/CT uptake in kidney and LNCaP tumor [3]: high uptake
Tissue distribution: Adipose ([4]; 0.25 hr after injection): 1.45 ± 0.27 %ID/g
Tissue distribution: Blood ([4]; 0.25 hr after injection): 2.59 ± 0.24 %ID/g
Tissue distribution: Bone ([4]; 0.25 hr after injection): 0.69 ± 0.15 %ID/g
Tissue distribution: Brain ([4]; 0.25 hr after injection): 0.08 ± 0.02 %ID/g
Tissue distribution: Heart ([4]; 0.25 hr after injection): 1.25 ± 0.22 %ID/g
Tissue distribution: Kidneys ([4]; 0.25 hr after injection): 90.1 ± 20.2 %ID/g
Tissue distribution: Lg Intestine ([4]; 0.25 hr after injection): 0.41 ± 0.08 %ID/g
Tissue distribution: Liver ([4]; 0.25 hr after injection): 2.26 ± 0.56 %ID/g
Tissue distribution: Lungs ([4]; 0.25 hr after injection): 2.34 ± 0.61 %ID/g
Tissue distribution: Sk.Muscle ([4]; 0.25 hr after injection): 0.8 ± 0.18 %ID/g
Tissue distribution: Sm Intestine ([4]; 0.25 hr after injection): 0.83 ± 0.1 %ID/g
Tissue distribution: Spleen ([4]; 0.25 hr after injection): 4.28 ± 1.67 %ID/g
Tissue distribution: Stomach ([4]; 0.25 hr after injection): 0.69 ± 0.17 %ID/g
Tissue distribution: Testes ([4]; 0.25 hr after injection): 0.91 ± 0.24 %ID/g
Tissue distribution: Tumor (LNCaP xenograft) ([4]; 0.25 hr after injection): 12.9 ± 3.3 %ID/g
Ratio Tumor:Blood ([4]; 0.25 hr): 4.97
Ratio Tumor:Skeletal Muscle ([4]; 0.25 hr): 16.2
Tissue distribution: Adipose ([4]; 1 hr after injection): 0.74 ± 0.28 %ID/g
Tissue distribution: Blood ([4]; 1 hr after injection): 0.47 ± 0.15 %ID/g
Tissue distribution: Bone ([4]; 1 hr after injection): 0.25 ± 0.07 %ID/g
Tissue distribution: Brain ([4]; 1 hr after injection): 0.04 ± 0.01 %ID/g
Tissue distribution: Heart ([4]; 1 hr after injection): 0.31 ± 0.08 %ID/g
Tissue distribution: Kidneys ([4]; 1 hr after injection): 151 ± 26 %ID/g
Tissue distribution: Lg Intestine ([4]; 1 hr after injection): 0.15 ± 0.04 %ID/g
Tissue distribution: Liver ([4]; 1 hr after injection): 2.22 ± 0.43 %ID/g
Tissue distribution: Lungs ([4]; 1 hr after injection): 0.86 ± 0.24 %ID/g
Tissue distribution: Sk.Muscle ([4]; 1 hr after injection): 0.35 ± 0.17 %ID/g
Tissue distribution: Sm Intestine ([4]; 1 hr after injection): 0.41 ± 0.12 %ID/g
Tissue distribution: Spleen ([4]; 1 hr after injection): 1.91 ± 0.85 %ID/g
Tissue distribution: Stomach ([4]; 1 hr after injection): 0.26 ± 0.03 %ID/g
Tissue distribution: Testes ([4]; 1 hr after injection): 0.58 ± 0.19 %ID/g
Tissue distribution: Tumor (LNCaP xenograft) ([4]; 1 hr after injection): 17.4 ± 6.3 %ID/g
Ratio Tumor:Blood ([4]; 1 hr): 37.1
Ratio Tumor:Skeletal Muscle ([4]; 1 hr): 50.0
Tissue distribution: Adipose ([4]; 2 hr after injection): 0.46 ± 0.27 %ID/g
Tissue distribution: Blood ([4]; 2 hr after injection): 0.21 ± 0.04 %ID/g
Tissue distribution: Bone ([4]; 2 hr after injection): 0.17 ± 0.08 %ID/g
Tissue distribution: Brain ([4]; 2 hr after injection): 0.04 ± 0.01 %ID/g
Tissue distribution: Heart ([4]; 2 hr after injection): 0.19 ± 0.07 %ID/g
Tissue distribution: Kidneys ([4]; 2 hr after injection): 159 ± 46 %ID/g
Tissue distribution: Lg Intestine ([4]; 2 hr after injection): 0.28 ± 0.12 %ID/g
Tissue distribution: Liver ([4]; 2 hr after injection): 2.84 ± 0.63 %ID/g
Tissue distribution: Lungs ([4]; 2 hr after injection): 0.4 ± 0.19 %ID/g
Tissue distribution: Sk.Muscle ([4]; 2 hr after injection): 0.2 ± 0.1 %ID/g
Tissue distribution: Sm Intestine ([4]; 2 hr after injection): 0.35 ± 0.1 %ID/g
Tissue distribution: Spleen ([4]; 2 hr after injection): 0.75 ± 0.36 %ID/g
Tissue distribution: Stomach ([4]; 2 hr after injection): 0.21 ± 0.06 %ID/g
Tissue distribution: Testes ([4]; 2 hr after injection): 0.43 ± 0.16 %ID/g
Tissue distribution: Tumor (LNCaP xenograft) ([4]; 2 hr after injection): 14.0 ± 6.9 %ID/g
Ratio Tumor:Blood ([4]; 2 hr): 65.4
Ratio Tumor:Skeletal Muscle ([4]; 2 hr): 70.2
Tissue distribution: Adipose ([4]; 4 hr after injection): 0.12 ± 0.16 %ID/g
Tissue distribution: Bone ([4]; 4 hr after injection): 0.1 ± 0.18 %ID/g
Tissue distribution: Heart ([4]; 4 hr after injection): 0.01 ± 0.02 %ID/g
Tissue distribution: Kidneys ([4]; 4 hr after injection): 35.8 ± 18.7 %ID/g
Tissue distribution: Lg Intestine ([4]; 4 hr after injection): 0.48 ± 0.13 %ID/g
Tissue distribution: Liver ([4]; 4 hr after injection): 2.17 ± 0.67 %ID/g
Tissue distribution: Lungs ([4]; 4 hr after injection): 0.08 ± 0.04 %ID/g
Tissue distribution: Sk.Muscle ([4]; 4 hr after injection): 0.08 ± 0.1 %ID/g
Tissue distribution: Sm Intestine ([4]; 4 hr after injection): 0.24 ± 0.07 %ID/g
Tissue distribution: Spleen ([4]; 4 hr after injection): 0.16 ± 0.12 %ID/g
Tissue distribution: Stomach ([4]; 4 hr after injection): 0.11 ± 0.05 %ID/g
Tissue distribution: Testes ([4]; 4 hr after injection): 0.26 ± 0.17 %ID/g
Tissue distribution: Tumor (LNCaP xenograft) ([4]; 4 hr after injection): 13.7 ± 3.1 %ID/g
Ratio Tumor:Blood ([4]; 4 hr): 220
Ratio Tumor:Skeletal Muscle ([4]; 4 hr): 182
Tissue distribution: Adipose ([4]; 8 hr after injection): 0.04 ± 0.11 %ID/g
Tissue distribution: Blood ([4]; 8 hr after injection): 0.06 ± 0.03 %ID/g
Tissue distribution: Bone ([4]; 8 hr after injection): 0.04 ± 0.04 %ID/g
Tissue distribution: Brain ([4]; 8 hr after injection): 0.02 ± 0.01 %ID/g
Tissue distribution: Heart ([4]; 8 hr after injection): 0.05 ± 0.04 %ID/g
Tissue distribution: Kidneys ([4]; 8 hr after injection): 21.5 ± 25.5 %ID/g
Tissue distribution: Lg Intestine ([4]; 8 hr after injection): 0.72 ± 0.22 %ID/g
Tissue distribution: Liver ([4]; 8 hr after injection): 1.78 ± 0.4 %ID/g
Tissue distribution: Lungs ([4]; 8 hr after injection): 0.06 ± 0.03 %ID/g
Tissue distribution: Sk.Muscle ([4]; 8 hr after injection): 0.02 ± 0.04 %ID/g
Tissue distribution: Sm Intestine ([4]; 8 hr after injection): 0.27 ± 0.06 %ID/g
Tissue distribution: Spleen ([4]; 8 hr after injection): 0.18 ± 0.11 %ID/g
Tissue distribution: Stomach ([4]; 8 hr after injection): 0.21 ± 0.08 %ID/g
Tissue distribution: Testes ([4]; 8 hr after injection): 0.18 ± 0.14 %ID/g
Tissue distribution: Tumor (LNCaP xenograft) ([4]; 8 hr after injection): 9.74 ± 3.48 %ID/g
Ratio Tumor:Blood ([4]; 8 hr): 176
Ratio Tumor:Skeletal Muscle ([4]; 8 hr): 446
Tissue distribution: Adipose ([4]; 24 hr after injection): 0.01 ± 0.11 %ID/g
Tissue distribution: Blood ([4]; 24 hr after injection): 0.01 ± 0 %ID/g
Tissue distribution: Bone ([4]; 24 hr after injection): 0.03 ± 0.05 %ID/g
Tissue distribution: Brain ([4]; 24 hr after injection): 0.02 ± 0.01 %ID/g
Tissue distribution: Heart ([4]; 24 hr after injection): 0.01 ± 0.05 %ID/g
Tissue distribution: Kidneys ([4]; 24 hr after injection): 1.1 ± 0.6 %ID/g
Tissue distribution: Lg Intestine ([4]; 24 hr after injection): 0.37 ± 0.18 %ID/g
Tissue distribution: Liver ([4]; 24 hr after injection): 0.29 ± 0.05 %ID/g
Tissue distribution: Lungs ([4]; 24 hr after injection): 0.05 ± 0.06 %ID/g
Tissue distribution: Sk.Muscle ([4]; 24 hr after injection): 0.08 ± 0.04 %ID/g
Tissue distribution: Sm Intestine ([4]; 24 hr after injection): 0.07 ± 0.02 %ID/g
Tissue distribution: Spleen ([4]; 24 hr after injection): 0.14 ± 0.1 %ID/g
Tissue distribution: Stomach ([4]; 24 hr after injection): 0.11 ± 0.05 %ID/g
Tissue distribution: Testes ([4]; 24 hr after injection): 0.05 ± 0.04 %ID/g
Tissue distribution: Tumor (LNCaP xenograft) ([4]; 24 hr after injection): 5.03 ± 1.35 %ID/g
Ratio Tumor:Blood ([4]; 24 hr): 411
Ratio Tumor:Skeletal Muscle ([4]; 24 hr): 64.5
tumor:blood ratio ([4]; after only a few hours): > 100
tumor:skeletal muscle ratio ([4]; after only a few hours): > 100
Thyroid content (deiodination) ([4]; all time points): < 1 % of the total injected dose
Binding to LNCaP tumor xenografts with co-injected PMPA [4, 10]: blocked
Binding to kidneys with co-injected PMPA [4, 10]: blocked
Blood-brain barrier crossing ([4]; from little uptake in the brain): do not cross the blood-brain barrier
Route of clearance ([4]; mouse, in vivo): primarily through urinary excretion
Binding to LNCaP cells in the presence of non-radiolabeled compound or PMPA ([5]; 3 nM radioligand with 10 µM non-radiolabeled compound or 10 µM PMPA): abolished; also recorded: inhibited
Binding to LNCaP cells ([5]; 3 nM radioligand, 1 hour, room temperature): bound
Stability in liver microsomes [6]: stable
Localization to PC3 tumors [7]: not to the PSMA deficient PC3 tumors
Stability in blood plasma [8]: stable
Internalization into LNCaP cells (LNCaP cells; 4 °C): but not at 4 °C
Internalization into LNCaP cells (LNCaP cells; 37 °C): internalized; also recorded: time dependent increase in radioactivity associated with the cellular pellet
Binding to PC3 cells [9]: no binding; also recorded: not to the PSMA deficient PC3 cells
